In US20110182982A1, “LIPOSOME TREATMENT OF VIRAL INFECTIONS” (University of Oxford, priority 2006, published 2011):

Key:
Assay in all cases: p24 secretion of HIV-1-infected PBMCs
Assay type in all cases: cell-based
HIV-1 isolate: HT92599 = test system: HIV-1 isolate: HT92599
Description: (§1) Clearance of HIV-1 primary isolates from infected human cells by NB-DNJ was assessed using phytohemagglutinin (PHA)-activated peripheral blood mononuclear cells (PBMCs) as indicator cells and the determination of p24 antigen production as the end point.
(§2) PBMCs from four normal (uninfected) donors were isolated, pooled, and stimulated with PHA (5 μg/ml) for 48 h followed by PHA plus interleukin-2 (40 U/ml) for 72 h in RPMI 1640 medium containing 10% heat-inactivated fetal bovine serum (FBS), 100 U of penicillin per ml, 100 μg of streptomycin per ml, and 2 mM L-glutamine. All experiments were performed in 96-well microtiter plates. To infect cells, 100 μl of PHA-activated PBMCs (5×10^5/ml) was added to each well, after which an equal volume containing 100 50% tissue culture infective doses (TCID50) of primary isolate stock was added. After an overnight incubation, the cells were washed three times with tissue culture medium, and finally re-suspended in medium containing the appropriate liposome treatment or free NB-DNJ. On day 7, approximately 10-30% of the culture volume containing secreted HIV-1 virions was used to infect naïve PBMCs for a second round of infection and treatment (volume transferred was calculated to be the volume necessary for the untreated control of that isolate to infect naïve cells at a TCID50=100). Rounds of treatment and infection of naïve cells were continued over four weeks, and at every time point cellular supernatant containing secreted virions was isolated and used in capture ELISAs to determine p24 concentration (measure of secretion). Additionally, supernatant isolated at each time point throughout treatment was used to infect naïve PBMCs (TCID50=100) for two weeks with no further treatment, which allowed for the observation of a rebound in viral activity.
(§3) PBMCs infected with 8 primary isolates (listed in Table 3) were incubated in the presence of free NB-DNJ (concentrations ranging 0-1 mM) or liposome-encapsulated NB-DNJ (0-3.75 μM, final lipid concentration of 50 μM).

HIV-1 isolate: 93IN101 = settings: for % p24 secretion Week 1-rb / % p24 secretion Week 2-rb / % p24 secretion Week 3-rb / % p24 secretion Week 4-rb: treatment removed 2 weeks
Description: as §1, §2, §3

HIV-1 isolate: 89.6 = settings: for % p24 secretion Week 1-rb / % p24 secretion Week 2-rb / % p24 secretion Week 3-rb / % p24 secretion Week 4-rb: treatment removed 2 weeks
Description: as §1, §2, §3

[1] = NB-DNJ 500 uM, treatment removed 2 weeks
[2] = NB-DNJ 1000 uM, treatment removed 2 weeks
[3] = 1 mM free in medium, first week
[4] = Human immunodeficiency virus 1, PBMC, free, three rounds of treatment

For `CCCCN1C[C@H](O)[C@@H](O)[C@H](O)[C@H]1CO` [NB-DNJ, N-butyl-1,5-dideoxy-1,5-imino-D-glucitol], the “% p24 secretion Week 2-rb” value (HIV-1 isolate: HT92599; [1]) was 27%, the “% p24 secretion Week 3-rb” value (HIV-1 isolate: HT92599; [1]) was 17% and the “% p24 secretion Week 4-rb” value (HIV-1 isolate: HT92599; [1]) was 1%. For the same compound, the “% p24 secretion Week 1” value (HIV-1 isolate: HT92599; NB-DNJ 1000 uM) was 55%, the “% p24 secretion Week 2” value (HIV-1 isolate: HT92599; NB-DNJ 1000 uM) was 10% and the “% p24 secretion Week 3” value (HIV-1 isolate: HT92599; NB-DNJ 1000 uM) was 3%. The “% p24 secretion Week 4” value (HIV-1 isolate: HT92599; NB-DNJ 1000 uM) was 0%, the “% p24 secretion Week 1-rb” value (HIV-1 isolate: HT92599; [2]) was 52% and the “% p24 secretion Week 2-rb” value (HIV-1 isolate: HT92599; [2]) was 15%. For the same compound, the “% p24 secretion Week 3-rb” value (HIV-1 isolate: HT92599; [2]) was 6%, the “% p24 secretion Week 4-rb” value (HIV-1 isolate: HT92599; [2]) was 1% and the decrease in secretion (HIV-1 isolate: 93IN101; [3]) was 50%. For the same compound, the “% p24 secretion Week 1” value (HIV-1 isolate: 93IN101; NB-DNJ 250 uM) was 106%, the “% p24 secretion Week 2” value (HIV-1 isolate: 93IN101; NB-DNJ 250 uM) was 81% and the “% p24 secretion Week 3” value (HIV-1 isolate: 93IN101; NB-DNJ 250 uM) was 78%. For the same compound, the “% p24 secretion Week 4” value (HIV-1 isolate: 93IN101; NB-DNJ 250 uM) was 66%, the “% p24 secretion Week 1-rb” value (HIV-1 isolate: 93IN101; NB-DNJ 250 uM) was 96% and the “% p24 secretion Week 2-rb” value (HIV-1 isolate: 93IN101; NB-DNJ 250 uM) was 88%. The “% p24 secretion Week 3-rb” value (HIV-1 isolate: 93IN101; NB-DNJ 250 uM) was 81%, the “% p24 secretion Week 4-rb” value (HIV-1 isolate: 93IN101; NB-DNJ 250 uM) was 72% and the “% p24 secretion Week 1” value (HIV-1 isolate: 93IN101; NB-DNJ 500 uM) was 75%. For the same compound, the “% p24 secretion Week 2” value (HIV-1 isolate: 93IN101; NB-DNJ 500 uM) was 45%, the “% p24 secretion Week 3” value (HIV-1 isolate: 93IN101; NB-DNJ 500 uM) was 7% and the “% p24 secretion Week 4” value (HIV-1 isolate: 93IN101; NB-DNJ 500 uM) was 2%. The “% p24 secretion Week 1-rb” value (HIV-1 isolate: 93IN101; NB-DNJ 500 uM) was 88%, the “% p24 secretion Week 2-rb” value (HIV-1 isolate: 93IN101; NB-DNJ 500 uM) was 37% and the “% p24 secretion Week 3-rb” value (HIV-1 isolate: 93IN101; NB-DNJ 500 uM) was 11%. The “% p24 secretion Week 4-rb” value (HIV-1 isolate: 93IN101; NB-DNJ 500 uM) was 0%, the “% p24 secretion Week 1” value (HIV-1 isolate: 93IN101; NB-DNJ 1000 uM) was 67% and the “% p24 secretion Week 2” value (HIV-1 isolate: 93IN101; NB-DNJ 1000 uM) was 17%. For the same compound, the “% p24 secretion Week 3” value (HIV-1 isolate: 93IN101; NB-DNJ 1000 uM) was 3%, the “% p24 secretion Week 4” value (HIV-1 isolate: 93IN101; NB-DNJ 1000 uM) was 0% and the “% p24 secretion Week 1-rb” value (HIV-1 isolate: 93IN101; NB-DNJ 1000 uM) was 51%. The “% p24 secretion Week 2-rb” value (HIV-1 isolate: 93IN101; NB-DNJ 1000 uM) was 4%, the “% p24 secretion Week 3-rb” value (HIV-1 isolate: 93IN101; NB-DNJ 1000 uM) was 1% and the “% p24 secretion Week 4-rb” value (HIV-1 isolate: 93IN101; NB-DNJ 1000 uM) was 0%. The “reduction in viral secretion” value (HIV-1 isolate: 89.6; [3]) was 75%, the IC50 (HIV-1 isolate: 89.6; [4]) was 250 µM and the IC90 (HIV-1 isolate: 89.6; [4]) was 375 µM. The “% p24 secretion Week 1” value (HIV-1 isolate: 89.6; NB-DNJ 250 uM) was 98%, the “% p24 secretion Week 2” value (HIV-1 isolate: 89.6; NB-DNJ 250 uM) was 79% and the “% p24 secretion Week 3” value (HIV-1 isolate: 89.6; NB-DNJ 250 uM) was 54%. The “% p24 secretion Week 4” value (HIV-1 isolate: 89.6; NB-DNJ 250 uM) was 59%, the “% p24 secretion Week 1-rb” value (HIV-1 isolate: 89.6; NB-DNJ 250 uM) was 81% and the “% p24 secretion Week 2-rb” value (HIV-1 isolate: 89.6; NB-DNJ 250 uM) was 70%. For the same compound, the “% p24 secretion Week 3-rb” value (HIV-1 isolate: 89.6; NB-DNJ 250 uM) was 73%, the “% p24 secretion Week 4-rb” value (HIV-1 isolate: 89.6; NB-DNJ 250 uM) was 66% and the “% p24 secretion Week 1” value (HIV-1 isolate: 89.6; NB-DNJ 500 uM) was 36%. For the same compound, the “% p24 secretion Week 2” value (HIV-1 isolate: 89.6; NB-DNJ 500 uM) was 16%, the “% p24 secretion Week 3” value (HIV-1 isolate: 89.6; NB-DNJ 500 uM) was 2% and the “% p24 secretion Week 4” value (HIV-1 isolate: 89.6; NB-DNJ 500 uM) was 0%. The “% p24 secretion Week 1-rb” value (HIV-1 isolate: 89.6; NB-DNJ 500 uM) was 35%, the “% p24 secretion Week 2-rb” value (HIV-1 isolate: 89.6; NB-DNJ 500 uM) was 8% and the “% p24 secretion Week 3-rb” value (HIV-1 isolate: 89.6; NB-DNJ 500 uM) was 0%. For the same compound, the “% p24 secretion Week 4-rb” value (HIV-1 isolate: 89.6; NB-DNJ 500 uM) was 0%, the “% p24 secretion Week 1” value (HIV-1 isolate: 89.6; NB-DNJ 1000 uM) was 25% and the “% p24 secretion Week 2” value (HIV-1 isolate: 89.6; NB-DNJ 1000 uM) was 1%. For the same compound, the “% p24 secretion Week 3” value (HIV-1 isolate: 89.6; NB-DNJ 1000 uM) was 1%, the “% p24 secretion Week 4” value (HIV-1 isolate: 89.6; NB-DNJ 1000 uM) was 0% and the “% p24 secretion Week 1-rb” value (HIV-1 isolate: 89.6; NB-DNJ 1000 uM) was 21%. For the same compound, the “% p24 secretion Week 2-rb” value (HIV-1 isolate: 89.6; NB-DNJ 1000 uM) was 0%, the “% p24 secretion Week 3-rb” value (HIV-1 isolate: 89.6; NB-DNJ 1000 uM) was 0% and the “% p24 secretion Week 4-rb” value (HIV-1 isolate: 89.6; NB-DNJ 1000 uM) was 0%.
